Experimental data from US8586822B2, “Methods for producing a non human model for aortic aneurysm” (INSERM (Institut National de la Sante et de la Recherche …, priority 2007, dated 2013).

Key:
[1] = tested on: CD28− mice treated with angiotensin II; assay: CD28− mice treated with angiotensin II and trichostatin; format: in vivo, mouse; details: 1 mg/kg/day for 14 days, angiotensin II-infused CD28− mice
Method: Baseline blood pressure measurements were determined on 5 consecutive days. After these baseline recordings, an osmotic minipump (Alzet Model 2004; DURECT) infusing Angiotensin II (Ang II) (Sigma, St. Louis, Mo.) at a rate of 1,000 ng/kg/min was implanted s.c. and blood pressure measurements continued for 28 days to verify continuous hypertension. The animals ingested either a normal diet containing 0.4% sodium chloride or a high salt diet with 5% sodium chloride (SDS) to accentuate hypertension and kidney injury. All animals studied were between 8 and 14 wk old. The protocol followed the French Department of Agriculture and the National Institute of Health guidelines for animal care and protection. For both strains, all experiments used age- and sex-matched wild-type and genetically altered animals with similar genetic background (C57Bl/6J background). Normal C57Bl/6J and CD28 deficient animals were obtained from Charles River Laboratories. B7.1/B7.2 (CD80/CD86) deficient animals were obtained from Dr. Benoit Salomon (Université Pierre et Marie Curie-CNRS U7087 laboratory, Paris). Anti-pan-TGF-beta antibody (clone 2G7) was administrated thrice a week i.p. at the dose of 500 μg/mouse for two weeks, then at the dose of 150 μg/mouse for the following two weeks. […]

AAA = details: in vivo; cited from earlier work

Compound | aneurysm [1] | effects in AAA (AAA)
CC(/C=C/C(=O)NO)=C\[C@@H](C)C(=O)c1ccc(N(C)C)cc1 [trichostatin] | prevented aneurysm | 
CC[C@H]1OC(=O)[C@H](C)[C@@H](O[C@H]2C[C@@](C)(OC)[C@@H](O)[C@H](C)O2)[C@H](C)[C@@H](O[C@@H]2O[C@H](C)C[C@H](N(C)C)[C@H]2O)[C@](C)(O)C[C@@H](C)/C(=N\OCOCCOC)[C@H](C)[C@@H](O)[C@]1(C)O [roxithromycin] |  | modest effects
